Values quoted from earlier work, collected in patent US6482309B1, “Electrolytic generation of nascent iodine as a method of treatment and for the prevention of infections associated with medical implant devices” (OxiBio, Inc., priority 1999, dated 2002).

System: bacteria and viruses

II [free iodine, iodine]
level of free iodine required for efficient microbial killing: ~2 ppm
